Assay results taken from PubChem BioAssay (NCI).
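Protocol summary: plate cells (96-well), add compound at 5 concentrations, incubate 48 h, interpolate endpoints linearly. GI50 = concentration required for 50% inhibition of growth. The concentration for full growth arrest is given as TGI.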

What was measured:
Experiment in all cases: NCI-60 cell line screen, 48 h
HCC-2998 colon = test system: HCC-2998 colon
HT29 colon = test system: HT29 colon
SK-MEL-28 melanoma = test system: SK-MEL-28 melanoma
MDA-MB-231 breast = test system: MDA-MB-231 breast
RXF 393 renal = test system: RXF 393 renal
OVCAR-4 ovarian = test system: OVCAR-4 ovarian
NCI/ADR-RES ovarian = test system: NCI/ADR-RES ovarian
HOP-62 NSCLC = test system: HOP-62 NSCLC
LOX IMVI melanoma = test system: LOX IMVI melanoma
SR leukemia = test system: SR leukemia

SMILES	GI50 (HCC-2998 colon) [µM]	TGI (HCC-2998 colon) [µM]	GI50 (HT29 colon) [µM]	TGI (HT29 colon) [µM]	GI50 (SK-MEL-28 melanoma) [µM]	TGI (SK-MEL-28 melanoma) [µM]	GI50 (MDA-MB-231 breast) [µM]	TGI (MDA-MB-231 breast) [µM]	GI50 (RXF 393 renal) [µM]	TGI (RXF 393 renal) [µM]	TGI (OVCAR-4 ovarian) [µM]	TGI (NCI/ADR-RES ovarian) [µM]	TGI (HOP-62 NSCLC) [µM]	TGI (LOX IMVI melanoma) [µM]	TGI (SR leukemia) [µM]	GI50 (OVCAR-4 ovarian) [µM]	GI50 (SR leukemia) [µM]	GI50 (NCI/ADR-RES ovarian) [µM]	GI50 (HOP-62 NSCLC) [µM]	GI50 (LOX IMVI melanoma) [µM]
CC(CNc1nc(Nc2ccc(Cl)c(Cl)c2)nc(C(Cl)(Cl)Cl)n1)N(C)C (centres undefined)	1.58	3.04	1.66	3.11	1.83	3.29	0.307	1.42	1.52	2.88										
C/C=C1/C(=O)O[C@]23C=C[C@@H]4C(C(=O)OC)=CO[C@H](O[C@@H]12)[C@@H]43		5.99		9.06		7.63				1.29	2.98	6.37	22	0.725						
Cc1ccc(C(=O)N/N=C(\N=Nc2ccccc2)c2ccc(N(CCC#N)CCC#N)cc2C)cc1		> 100		> 100		> 100		> 100		> 100	> 100	> 100	52.9	> 100	> 100					
O=C1NC(=O)C2(CCc3ccc(N(CCCl)CCCl)cc32)N1 (centres undefined)		34.1		59.3		38.1				22.5	41.4	40.6	35.5	26.5						
CC(=O)Nc1nc(C)c(-c2cc3c(c(S(C)(=O)=O)c2)C(=O)N([C@@H](C)C2CC2)C3)s1	46.7	> 100	31	> 100	28.1	> 100	18.6	69.6	14.2	51.6	> 100	> 100	> 100	> 100	> 100	29.2	26.8	53.6	28.2	29.1
COc1ccc(/C=C/C(=O)/C=C(/C=C/c2ccc(OC)c(OC)c2OC)OB(F)F)c(OC)c1OC	1.94	3.93					3.1	> 100	1.35	2.92	> 100	> 100	> 100	2.4	> 100	5.09	0.278	3.28	3.89	0.721
COc1ccc(-c2c(C#N)cnc(N)c2-c2nc3cc(C)c(C)cc3[nH]2)cc1	11	> 100	4.79	> 100	17.2	> 100	8.28	> 100	5.68	20.4	> 100	> 100	14.4	> 100	> 100	22.5	5.64	6.84	3.65	5.74
CC1CC(c2ccc([N+](=O)[O-])cc2)=Nc2ccccc2S1=O (centres undefined)		36.8		27.2		43.6				23.6	62.3		75	25.6	76.6					
CC(=O)O[C@@H]1CN(S(=O)(=O)c2ccc(C)cc2)C[C@@H]1C1CCCCC1		> 100		74		34.3					> 100	53.3	66.7	64	> 100					
COc1ccc2oc3c(ccc[n+]3C)c(=O)c2c1		> 100		> 100		> 100		> 100		> 100	> 100	> 100	> 100	> 100	> 100					
COc1cc2c(cc1O)N=C[C@@H]1CCC(O)N1C2=O (mixture of isomers)		2.81		72.9		2.84				0.638	18	3.42	2.91	0.974						
CCc1ncc(C(C)(O)c2ccccc2)n1Cc1ccccc1 (centres undefined)				> 100		> 100		96.3		> 100	> 100	> 100		94	44.1					
